Experimental data taken from the NIST ThermoML archive (doi:10.1007/s10765-011-1149-x).
± gives the expanded uncertainty stated by the source.

What was measured:
[1] = 101 kPa, Liquid, Vibrating tube method
[2] = xn = mol fraction of the nth substance listed; settings: 101 kPa, Liquid, Vibrating tube method, x2 = 0

Structure (SMILES)	mass density ([1]; 276.15 K) [kg/m3]	mass density ([1]; 277.15 K) [kg/m3]	mass density ([1]; 283.15 K) [kg/m3]	mass density ([1]; 288.15 K) [kg/m3]	mass density ([1]; 293.15 K) [kg/m3]	mass density ([1]; 298.15 K) [kg/m3]	mass density ([1]; 303.15 K) [kg/m3]	mass density ([1]; 308.15 K) [kg/m3]	mass density ([1]; 313.15 K) [kg/m3]	mass density ([2]; 276.15 K) [kg/m3]	mass density ([2]; 277.15 K) [kg/m3]	mass density ([2]; 283.15 K) [kg/m3]	mass density ([2]; 293.15 K) [kg/m3]	mass density ([2]; 303.15 K) [kg/m3]	also measured
CO [methanol]	807.18 ± 0.15	806.25 ± 0.15	800.64 ± 0.15	795.96 ± 0.15	791.26 ± 0.15	786.55 ± 0.15	781.83 ± 0.15	777.08 ± 0.15							mass density ([1]; 313.14 K): 772.31 ± 0.16 kg/m3
Cc1cc(C)nc(C)c1 [2,4,6-trimethylpyridine]	928.45 ± 0.23	927.61 ± 0.23	922.54 ± 0.23	918.32 ± 0.24		909.84 ± 0.24	905.58 ± 0.24	901.31 ± 0.24	897.03 ± 0.24						mass density ([1]; 293.14 K): 914.08 ± 0.24 kg/m3
OCCO [1,2-ethanediol] + Cc1cc(C)nc(C)c1										1125.17 ± 0.17	1124.48 ± 0.17	1120.32 ± 0.16	1113.37 ± 0.16	1106.36 ± 0.16	mass density ([2]; 313.15 K): 1099.3 ± 0.16 kg/m3
CO [methanol] + Cc1cc(C)nc(C)c1										807.18 ± 0.15	806.25 ± 0.15	800.64 ± 0.15	791.26 ± 0.15	781.83 ± 0.15	mass density ([2]; 288.15 K): 795.96 ± 0.15 kg/m3; mass density ([2]; 298.15 K): 786.55 ± 0.15 kg/m3; mass density ([2]; 308.15 K): 777.08 ± 0.15 kg/m3; mass density ([2]; 313.14 K): 772.31 ± 0.16 kg/m3
OCCO [1,2-ethanediol]	1125.17 ± 0.17	1124.48 ± 0.17	1120.32 ± 0.16		1113.37 ± 0.16		1106.36 ± 0.16		1099.3 ± 0.16						
